Assay results: patent publication US20090068258A1, “Caveolin-mimetic peptide for prevention and treatment of pulmonary hypertension and right ventricular hypertrophy” (priority 2007, published 2009)
Residues, ends and D or L forms follow the SMILES beside them. *: point of attachment. Biotin = O=C1N[C@H]2[C@H](CS[C@H]2CCCCC(=O)*)N1

Columns and labels:
[1] = test system: Cav-2; test: Dual-label immunofluorescence analysis of Cav-2 in pulmonary arteries of MCT rats; assay type: in vivo, Sprague-Dawley rats
Method: (§1) Male Sprague-Dawley rats (Charles River, Wilmington, Mass.) weighing between 250-300 g received a single intraperitoneal (ip) injection of either 0.5 ml 0.9% NaCl or 0.5 ml 60 mg/kg MCT. Thirty minutes later, rats were randomly assigned to receive a daily ip injection of either 0.5 ml 0.9% NaCl, 0.5 ml AP (2.5 mg/kg/d) or 0.5 ml AP-Cav (2.5 mg/kg/d) for 2 weeks.
(§2) Immunofluorescence Analysis. As mentioned above, the left lung of Control (n=17), Control+AP-Cav (n=10), MCT (n=25), MCT+AP (n=19), and MCT+AP-Cav (n=24) rats was dissected and perfused-fixed. Transverse sections were obtained and embedded with paraffin. Sections of 10 μm were cut and stained with hematoxylin and eosin (H&E).
(§3) Paraffin from 10 μm-thick sections was removed by immersion in xylene. These sections were then rehydrated with graded alcohol to water and blocked overnight. The sections were subsequently incubated with a given primary antibody for three hours. FITC- and TRITC-conjugated secondary antibodies were then added to the sections after a 15 min wash in PBS. After 1 hr of incubation with the secondary antibodies, the sections were washed in PBS and mounted using Prolong Gold antifade reagent (Molecular Probes, Carlsbad, Calif.).

[2] = test system: cyclin D1; test: Immunoblot analysis of lung cyclin D1 in MCT rats; assay type: in vivo, Sprague-Dawley rats
Method: as §1
(§4) Immunoblot Analysis. Lung samples from Control (n=17), Control+AP-Cav (n=10), MCT (n=25), MCT+AP (n=19), and MCT+AP-Cav (n=24) groups were homogenized in a RIPA lysis buffer containing protease and phosphatase inhibitors. Proteins were then separated by SDS-PAGE (12% acrylamide) and transferred to nitrocellulose membranes. The membranes were placed in blocking solution for 30 min. Afterwards, the membranes were washed and incubated with a given primary antibody for 1 hour (Cav-1, -2 and β-actin) or 3 hours (eNOS, STAT3, PY-STAT3, cyclin D1, and cyclin D3). […] Western blots for Cav-1, Cav-2, eNOS, PY-STAT3, cyclin D1 and cyclin D3 were subsequently quantitated using the NIH Image J software (using the mean gray value for each band).
(§5) Statistical Analysis. Hemodynamic and morphometric variables as well as the mean gray value of each western blot are expressed as mean±S.E.M. Differences between the 5 groups were evaluated by ANOVA, followed by Tukey's multiple-group comparisons test. […]

[3] = test system: Cav-2; test: Immunoblot analysis of lung Cav-2 protein levels in MCT rats; assay type: in vivo, Sprague-Dawley rats
Method: as §1, §4, §5

[4] = test system: Cav-1; test: Immunoblot analysis of lung Cav-1 protein levels in MCT rats; assay type: in vivo, Sprague-Dawley rats
Method: as §1, §4, §5

[5] = test system: cyclin D3; test: Immunoblot analysis of lung cyclin D3 in MCT rats; assay type: in vivo, Sprague-Dawley rats
Method: as §1, §4, §5

[6] = test system: Cav-1; test: Dual-label immunofluorescence analysis of Cav-1 in pulmonary arteries of MCT rats; assay type: in vivo, Sprague-Dawley rats
Method: as §1, §2, §3

[7] = test system: pulmonary arteries of MCT rats; test: Lung vascular morphometry (percent medial wall thickness) in MCT rats; assay type: in vivo, Sprague-Dawley rats
Method: as §1
(§6) Lung Vascular Morphometry. H&E sections of the left lung (n=10 for each groups) were microscopically assessed for the medial wall thickness of pulmonary arteries. Measurements of the luminal diameter and the medial thickness on either side were obtained using the Image J software. Measurements were made on 30 muscular arteries (<50 μm, 51-100 μm, and 100-150 μm of external diameter) per lung section. The medial wall thickness was then related to the external diameter and expressed as percent wall thickness, as previously described^20.
(§7) Statistical Analysis. Hemodynamic and morphometric variables as well as the mean gray value of each western blot are expressed as mean±S.E.M. Differences between the 5 groups were evaluated by ANOVA, followed by Tukey's multiple-group comparisons test. Statistical significance was assumed at p<0.05.

[8] = test system: PY-STAT3; test: Immunoblot analysis of lung PY-STAT3 in MCT rats; assay type: in vivo, Sprague-Dawley rats
Method: as §1, §4, §5

[9] = test system: rats with MCT-induced PH; test: Hemodynamic and morphometric variables in rats with MCT-induced PH; assay type: in vivo, Sprague-Dawley rats; conditions: MCT 60 mg/kg ip rats, peptide 2.5 mg/kg/d ip for 2 weeks; for RV/LV+septum weight ratio: Control rats 25.3±0.5, MCT rats 31.1±0.6; for RV systolic pressures: Control rats 26.0±0.9, MCT rats 40.2±1.5; for BW (body weight) / CVP (central venous pressure) / Dry lung weight/BW / Dry/wet lung weight / HR (heart rate) / LV(+)dP/dt / LV(−)dP/dt / LV/BW / LVEDP (LV-end diastolic pressure) / MAP (mean arterial pressure) / RV(+)dP/dt / RV(−)dP/dt / RV/BW / RVEDP (RV-end diastolic pressure) / Wet lung weight/BW: mean±S.E.M.
Method: as §1
(§8) At two weeks, rats were anesthetized with xylazine (10 mg/kg)-ketamine (50 mg/kg) followed by 2000 U heparin (Sigma-Aldrich). The right jugular vein and carotid artery were then isolated and incised, and millar catheters (SPR-249, Millar Instruments, Houston, Tex.) were advanced into the right and left ventricles (RV and LV) for hemodynamic measurements. The RV and LV pressures were recorded with the Ponemah P3-Data acquisition system (LDS Test and Measurement, Middleton, Wis.).
(§9) Afterwards, the lower lobe of the right lung and the heart were dissected and weighed to respectively determine pulmonary edema and RV hypertrophy, as previously described^11. The remaining lobes of the right lung were submerged in liquid nitrogen and frozen at −80° C. The left pulmonary artery was then cannulated and perfused with 4% paraformaldehyde (PFA) for 2 min. This was followed by perfusion of the airways with 4% PFA for 2 min. The left lung was then immersed in 4% PFA for 24 hours.
as §7

[10] = test system: mice; conditions: in vivo delivery, previous reports (refs 17;18); cited from earlier work
[11] = test system: pulmonary arteries of Control rats; test: Lung vascular morphometry (percent medial wall thickness) in Control rats; assay type: in vivo, Sprague-Dawley rats; conditions: data not shown
Method: as §1, §6, §7

[12] = test system: Control rats; test: Hemodynamic and morphometric variables in Control rats (0.9% NaCl instead of MCT); assay type: in vivo, Sprague-Dawley rats
Method: as §1, §8, §9, §7

[13] = Control rats (no MCT), peptide 2.5 mg/kg/d ip for 2 weeks, mean±S.E.M.

CC[C@H](C)[C@H](NC(=O)[C@H](CCCCN)NC(=O)[C@@H]1CCCN1C(=O)[C@H](CCC(N)=O)NC(=O)[C@H](CCCNC(=N)N)NC(=O)CCCC[C@@H]1SC[C@@H]2NC(=O)N[C@@H]21)C(=O)N[C@@H](Cc1c[nH]c2ccccc12)C(=O)N[C@@H](Cc1ccccc1)C(=O)N1CCC[C@H]1C(=O)N[C@@H](CC(N)=O)C(=O)N[C@@H](CCCNC(=N)N)C(=O)N[C@@H](CCCNC(=N)N)C(=O)N[C@@H](CCCCN)C(=O)N1CCC[C@H]1C(=O)N[C@@H](Cc1c[nH]c2ccccc12)C(=O)N[C@@H](CCCCN)C(=O)N[C@@H](CCCCN)C(=O)O [AP, (biotin)-RQPKIWFPNRRKPWKK (SEQ ID NO:1)—(OH)] (Biotin-RQPKIWFPNRRKPWKK-OH)
Cav-2 expression in pulmonary arteries [1]: marked reductions | increase in cyclin D1 protein levels in the lungs ([2]; vs Control rats): ~4 fold | decrease of Cav-2 protein levels in the lungs ([3]; vs Control rats): ~2 fold | decrease of Cav-1 protein levels in the lungs ([4]; vs Control rats): ~3 fold | increase in cyclin D3 protein levels in the lungs ([5]; vs Control rats): ~4 fold | Cav-1 expression in pulmonary arteries [6]: marked reductions | increased percent medial wall thickness of pulmonary arteries ([7]; arteries <50 μm, 51-100 μm, 100-150 μm, vs Control rats): 2-3 fold | increased levels of PY-STAT3 in the lungs ([8]; vs Control rats): ~5 fold | RV/LV+septum weight ratio [9]: 30.6±0.6% | RV systolic pressures [9]: 39.6±1.5 mmHg | BW (body weight) [9]: 335 ± 7 g | CVP (central venous pressure) [9]: 5.1 ± 0.3 mmHg | Dry lung weight/BW [9]: 0.033 ± 0.001 % | Dry/wet lung weight [9]: 19.7 ± 0.4% | HR (heart rate) [9]: 274 ± 12 beats/min | LV(+)dP/dt [9]: 6268 ± 339 mmHg/s | LV(−)dP/dt [9]: 4319 ± 286 mmHg/s | LV/BW [9]: 0.200 ± 0.004% | LVEDP (LV-end diastolic pressure) [9]: 2.7 ± 0.3 mmHg | MAP (mean arterial pressure) [9]: 85.3 ± 4.4 mmHg | RV(+)dP/dt [9]: 1931 ± 78 mmHg/s | RV(−)dP/dt [9]: 1395 ± 72 mmHg/s | RV/BW [9]: 0.061 ± 0.002 % | RVEDP (RV-end diastolic pressure) [9]: 5.1 ± 0.3 mmHg | Wet lung weight/BW [9]: 0.170 ± 0.007 %

(biotin)-RQPKTWFPNRRKPWKK-DGIWKASFTTFTVTKYWFYR (SEQ ID NO:10)—(OH) [AP-Cav]
systemic blood pressure, blood flow, and heart rate [10]: had no effect | Cav-2 expression in pulmonary arteries [1]: prevented | pulmonary cyclin D1 expression (effect in words) ([2]; 2.5 mg/kg/d ip for 2 weeks): prevented the upregulation | pulmonary Cav-2 protein levels (effect in words) ([3]; 2.5 mg/kg/d ip for 2 weeks): significantly prevented the reduction | percent medial wall thickness of pulmonary arteries (effect in words) [11]: had no effect | pulmonary Cav-1 protein levels (effect in words) ([4]; 2.5 mg/kg/d ip for 2 weeks): significantly prevented the reduction | BW (body weight) [12, 13]: 407 ± 12 g | CVP (central venous pressure) [12, 13]: 3.1 ± 0.1 mmHg | Dry lung weight/BW [12, 13]: 0.019 ± 0.000% | Dry/wet lung weight [12, 13]: 20.8 ± 0.1% | HR (heart rate) [12, 13]: 270 ± 6 beats/min | LV(+)dP/dt [12, 13]: 6216 ± 446 mmHg/s | LV(−)dP/dt [12, 13]: 4614 ± 320 mmHg/s | LV/BW [12, 13]: 0.194 ± 0.005% | LVEDP (LV-end diastolic pressure) [12, 13]: 3.0 ± 0.3 mmHg | MAP (mean arterial pressure) [12, 13]: 79.4 ± 3.4 mmHg | RV(+)dP/dt [12, 13]: 1435 ± 60 mmHg/s | RV(−)dP/dt [12, 13]: 988 ± 46 mmHg/s | RV/BW [12, 13]: 0.050 ± 0.001% | RVEDP (RV-end diastolic pressure) [12, 13]: 2.8 ± 0.2 mmHg | Wet lung weight/BW [12, 13]: 0.091 ± 0.001% | effect on hemodynamic and morphometric variables ([12]; Control rats, compared to Control group receiving 0.9% NaCl alone): did not affect | pulmonary cyclin D3 expression (effect in words) ([5]; 2.5 mg/kg/d ip for 2 weeks): prevented the upregulation | Cav-1 expression in pulmonary arteries [6]: prevented | percent medial wall thickness of pulmonary arteries (effect in words) ([7]; 2.5 mg/kg/d ip for 2 weeks): significantly reduced | STAT3 signaling cascade (PY-STAT3) in the lungs (effect in words) ([8]; 2.5 mg/kg/d ip for 2 weeks): prevented the hyper-activation | RV/LV+septum weight ratio [9]: 24.6±0.5% | RV systolic pressures [9]: 30.1±1.3 mmHg | BW (body weight) [9]: 371 ± 9 g | CVP (central venous pressure) [9]: 3.2 ± 0.2 mmHg | Dry lung weight/BW [9]: 0.028 ± 0.001 % | Dry/wet lung weight [9]: 20.7 ± 0.3% | HR (heart rate) [9]: 261 ± 12 beats/min | LV(+)dP/dt [9]: 5766 ± 335 mmHg/s | LV(−)dP/dt [9]: 3891 ± 309 mmHg/s | LV/BW [9]: 0.200 ± 0.003% | LVEDP (LV-end diastolic pressure) [9]: 2.7 ± 0.3 mmHg | MAP (mean arterial pressure) [9]: 82.6 ± 2.9 mmHg | RV(+)dP/dt [9]: 1489 ± 18 mmHg/s | RV(−)dP/dt [9]: 1107 ± 61 mmHg/s | RV/BW [9]: 0.049 ± 0.001 % | RVEDP (RV-end diastolic pressure) [9]: 3.0 ± 0.2 mmHg | Wet lung weight/BW [9]: 0.132 ± 0.004 %
